In PubChem BioAssay AID1963866 (Molecular Pharmacology Branch, DTP, NCI, 2024):

System: PDC KRAS tumor spheroids with HUVEC/MSC, viability
Assay: Anticancer human tumor 349418-098-R-PDC patient-derived lung adenocarcinoma cell line growth inhibition [KRAS2]
Conditions: for IC50: curve of first compound; for viability, T/C: stronger effect = lower value
Description: Multicellular complex tumor spheroid response to RAS pathway inhibitors in combination with a targeted agents in patient-derived cell lines with oncogenic KRAS variants from multiple cancer types
A high-throughput screen of multi-cell type tumor spheroids was designed to identify active combinations of targeted small molecules and KRAS pathway inhibitors. Complex spheroids include a stromal component modeled by human endothelial cells (HUVEC) and fibroblasts modeled by human mesenchymal stem cells (MSCs). The concentration ranges selected for each drug and investigational agent were based upon clinically achievable concentrations if the clinical Cmax of the agent was known.
Compounds. The drugs and investigational agents: BI-3406 (NSC825286), BAY-293 (NSC824723), batoprotafib (TNO155; NSC825523), sotorasib (AMG 510; NSC818433), MRTX1257 (NSC819558), elimusertib (BAY 1895344; NSC800525), molibresib (GSK525762; NSC774829), temuterkib (LY3214996; NSC803410), venetoclax (NSC766270), alisertib (NSC759677), olaparib (NSC753686), talazoparib (NSC767125), erdafitinib (NSC781556), ipatasertib (NSC767898), cabozantinib (NSC761068), nintedanib (NSC756659), abemaciclib (NSC768073), docetaxel (NSC628503), trametinib (NSC758246), and sapanisertib (NSC764658) were obtained from the National Cancer Institute (NCI) Developmental Therapeutics Program Chemical Repository. The FDA-approved anticancer drug set is available from the Developmental Therapeutics Program. […] The stock solutions were prepared in dimethyl sulfoxide (DMSO, Sigma-Aldrich, St. Louis, MO, cat. D2650) at 800-fold the tested concentration and stored at -70 degrees C prior to their use. All drugs and investigational agents were tested over a range starting from a high concentration at or near the clinical Cmax and decreasing in half-log increments. If the clinical Cmax for an agent had not been determined, the highest concentration tested was 10 microM.
Cell Culture. All cells were maintained in an incubator at 37 degrees C and 5% CO2 with 95% humidity. The PDC lines were cultured according to standard operating procedures established by the NCI PDMR (https://pdmr.cancer.gov/sops/default.htm). Briefly, all PDCs were thawed and cultured in Matrigel-coated flasks prepared with a working solution of 1X Ham's F-12 nutrient mix, without supplementation (Invitrogen, Waltham, MA, cat. 11765054), 100 U/mL penicillin-streptomycin (Invitrogen, cat. 15140122), and 2.5% Matrigel (Corning Inc., Corning, NY, cat. 354248) for the first three passages. All PDCs were cultured in complete DMEM/F-12 media containing advanced DMEM/F-12 (Invitrogen, cat. 12634028), 4.9% defined fetal bovine serum, heat inactivated (HyClone Laboratories Inc., Logan, UT, cat. SH30070.03HI), 389 ng/mL hydrocortisone (Sigma-Aldrich, cat. H4001), 9.7 ng/mL human EGF recombinant protein (Invitrogen, cat. PHG0313), 23.4 microg/mL adenine (Sigma-Aldrich, cat. A2786), 97.3 U/mL penicillin-streptomycin (Invitrogen, cat. 15140122), 1.9 mM L-glutamine (Invitrogen, cat. 25030081), and 9.7 microM Y-27632 dihydrochloride (Tocris Bioscience, Bristol, United Kingdom, cat. 1254). The PDCs were cultured in complete DMEM/F12 media without 9.7 microM Y-27632 dihydrochloride for at least two passages prior to the screen. The established cell line HOP-62 was cultured in RPMI 1640 medium, HEPES (Invitrogen, cat. 22400105) with 10% defined fetal bovine serum (HyClone Laboratories Inc., cat. SH30070.03) and 2 mM L-glutamine (Invitrogen, cat. 25030081). The pooled donor HUVEC were cultured in endothelial cell growth medium 2 (PromoCell, Heidelberg, Germany, cat. C-22011) and the hMSC were cultured in mesenchymal stem cell growth medium 2 (PromoCell, cat. C-28009). For all experiments, HUVEC and hMSC were used at passages </=5, while the malignant cell lines were used at passages </=15. […]

[1] = second compound 0.1 µM, first compound 0.0316 µM
[2] = second compound 0.1 µM, first compound 0.1 µM
[3] = second compound 0.1 µM, first compound 0.316 µM
[4] = second compound 0.1 µM, first compound 1 µM
[5] = second compound 0.1 µM, first compound 3.16 µM
[6] = second compound 0.316 µM, first compound 0.0316 µM
[7] = second compound 0.316 µM, first compound 0.1 µM
[8] = second compound 0.316 µM, first compound 0.316 µM
[9] = second compound 0.316 µM, first compound 1 µM
[10] = second compound 0.316 µM, first compound 3.16 µM
[11] = second compound 1 µM, first compound 0.0316 µM
[12] = second compound 1 µM, first compound 0.1 µM
[13] = second compound 1 µM, first compound 0.316 µM
[14] = second compound 1 µM, first compound 1 µM
[15] = second compound 1 µM, first compound 3.16 µM
[16] = second compound 3.16 µM, first compound 0.0316 µM
[17] = second compound 3.16 µM, first compound 0.1 µM
[18] = second compound 3.16 µM, first compound 0.316 µM
[19] = second compound 3.16 µM, first compound 1 µM
[20] = second compound 3.16 µM, first compound 3.16 µM
[21] = second compound 10 µM, first compound 0.0316 µM
[22] = second compound 10 µM, first compound 0.1 µM
[23] = second compound 10 µM, first compound 0.316 µM
[24] = second compound 10 µM, first compound 1 µM
[25] = second compound 10 µM, first compound 3.16 µM
[26] = second compound 0.1 µM, first compound 10 µM
[27] = second compound 0.316 µM, first compound 10 µM
[28] = second compound 1 µM, first compound 10 µM
[29] = second compound 3.16 µM, first compound 10 µM
[30] = second compound 10 µM, first compound 10 µM
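Further: spheroids exposed to compounds for seven days before readout.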

CC1COCCN1c1cc(-c2ccnn2C)c2ccnc(-c3ccn[nH]3)c2n1 (stereo not given) + C=CC(=O)N1CCN(c2nc(=O)n(-c3c(C)ccnc3C(C)C)c3nc(-c4c(O)cccc4F)c(F)cc23)C(C)C1
IC50 (second compound 0.1 µM): 27.4 nM | IC50 (second compound 0.316 µM): 26.4 nM | IC50 (second compound 1 µM): 27.1 nM | IC50 (second compound 3.16 µM): 15.4 nM | IC50 (second compound 10 µM): < 10 nM | viability, T/C (second compound 0.1 µM, first compound 0.01 µM): 76.3% | viability, T/C [1]: 46.3% | viability, T/C [2]: 9.21% | viability, T/C [3]: 6.2% | viability, T/C [4]: 4.48% | viability, T/C [5]: 4.43% | viability, T/C (second compound 0.316 µM, first compound 0.01 µM): 117% | viability, T/C [6]: 37.7% | viability, T/C [7]: 8.7% | viability, T/C [8]: 4.96% | viability, T/C [9]: 4.36% | viability, T/C [10]: 4.34% | viability, T/C (second compound 1 µM, first compound 0.01 µM): 101% | viability, T/C [11]: 42% | viability, T/C [12]: 7.61% | viability, T/C [13]: 5.66% | viability, T/C [14]: 4.24% | viability, T/C [15]: 4.16% | viability, T/C (second compound 3.16 µM, first compound 0.01 µM): 69% | viability, T/C [16]: 18.1% | viability, T/C [17]: 6.37% | viability, T/C [18]: 4.8% | viability, T/C [19]: 4.05% | viability, T/C [20]: 4.49% | viability, T/C (second compound 10 µM, first compound 0.01 µM): 21.2% | viability, T/C [21]: 5.73% | viability, T/C [22]: 4.31% | viability, T/C [23]: 4.56% | viability, T/C [24]: 4.61% | viability, T/C [25]: 4.96%

CC1OCC2(CCN(c3cnc(Sc4ccnc(N)c4Cl)c(N)n3)CC2)C1N (stereo not given) + C=CC(=O)N1CCN(c2nc(=O)n(-c3c(C)ccnc3C(C)C)c3nc(-c4c(O)cccc4F)c(F)cc23)C(C)C1
IC50 (second compound 0.1 µM): > 10000 nM | IC50 (second compound 0.316 µM): > 10000 nM | IC50 (second compound 1 µM): > 10000 nM | IC50 (second compound 3.16 µM): > 10000 nM | IC50 (second compound 10 µM): < 31.6 nM | viability, T/C [1]: 109% | viability, T/C [2]: 79.5% | viability, T/C [3]: 110% | viability, T/C [4]: 90% | viability, T/C [5]: 76% | viability, T/C [26]: 74.5% | viability, T/C [6]: 87.3% | viability, T/C [7]: 94.9% | viability, T/C [8]: 90.2% | viability, T/C [9]: 100% | viability, T/C [10]: 96.4% | viability, T/C [27]: 78.5% | viability, T/C [11]: 82% | viability, T/C [12]: 106% | viability, T/C [13]: 96.3% | viability, T/C [14]: 78.6% | viability, T/C [15]: 95.5% | viability, T/C [28]: 73.8% | viability, T/C [16]: 70.2% | viability, T/C [17]: 71.1% | viability, T/C [18]: 72.6% | viability, T/C [19]: 63.2% | viability, T/C [20]: 68% | viability, T/C [29]: 60.2% | viability, T/C [21]: 30.3% | viability, T/C [22]: 33.1% | viability, T/C [23]: 23.9% | viability, T/C [24]: 25% | viability, T/C [25]: 28% | viability, T/C [30]: 21.9%

CCNC(=O)CC1N=C(c2ccc(Cl)cc2)c2cc(OC)ccc2-n2c(C)nnc21 (stereo not given) + C=CC(=O)N1CCN(c2nc(=O)n(-c3c(C)ccnc3C(C)C)c3nc(-c4c(O)cccc4F)c(F)cc23)C(C)C1
IC50 (second compound 0.1 µM): 133 nM | IC50 (second compound 0.316 µM): 139 nM | IC50 (second compound 1 µM): 185 nM | IC50 (second compound 3.16 µM): 140 nM | IC50 (second compound 10 µM): < 31.6 nM | viability, T/C [1]: 84.2% | viability, T/C [2]: 55.5% | viability, T/C [3]: 31.9% | viability, T/C [4]: 11.2% | viability, T/C [5]: 1.81% | viability, T/C [26]: 0.76% | viability, T/C [6]: 83% | viability, T/C [7]: 54% | viability, T/C [8]: 37% | viability, T/C [9]: 11.2% | viability, T/C [10]: 1.1% | viability, T/C [27]: 0.76% | viability, T/C [11]: 78.3% | viability, T/C [12]: 60.4% | viability, T/C [13]: 41.4% | viability, T/C [14]: 6.68% | viability, T/C [15]: 2.48% | viability, T/C [28]: 0.75% | viability, T/C [16]: 69.9% | viability, T/C [17]: 52.9% | viability, T/C [18]: 37.9% | viability, T/C [19]: 9.47% | viability, T/C [20]: 2.07% | viability, T/C [29]: 0.56% | viability, T/C [21]: 44.4% | viability, T/C [22]: 28.8% | viability, T/C [23]: 6.81% | viability, T/C [24]: 2.7% | viability, T/C [25]: 1.1% | viability, T/C [30]: 0.62%

Cn1nccc1Nc1nccc(-c2cc3c(s2)C(C)(C)N(CCN2CCOCC2)C3=O)n1 + C=CC(=O)N1CCN(c2nc(=O)n(-c3c(C)ccnc3C(C)C)c3nc(-c4c(O)cccc4F)c(F)cc23)C(C)C1
IC50 (second compound 0.1 µM): 85.5 nM | IC50 (second compound 0.316 µM): 64.3 nM | IC50 (second compound 1 µM): 67.6 nM | IC50 (second compound 3.16 µM): 37.4 nM | IC50 (second compound 10 µM): < 31.6 nM | viability, T/C [1]: 75.7% | viability, T/C [2]: 46.1% | viability, T/C [3]: 23.6% | viability, T/C [4]: 13.3% | viability, T/C [5]: 10.8% | viability, T/C [26]: 7.2% | viability, T/C [6]: 72.4% | viability, T/C [7]: 29.5% | viability, T/C [8]: 30.2% | viability, T/C [9]: 18.7% | viability, T/C [10]: 12.2% | viability, T/C [27]: 7.24% | viability, T/C [11]: 64.9% | viability, T/C [12]: 39.1% | viability, T/C [13]: 33.6% | viability, T/C [14]: 18.3% | viability, T/C [15]: 13.3% | viability, T/C [28]: 9.7% | viability, T/C [16]: 53% | viability, T/C [17]: 34.9% | viability, T/C [18]: 25.7% | viability, T/C [19]: 16.5% | viability, T/C [20]: 9.89% | viability, T/C [29]: 8.92% | viability, T/C [21]: 32.6% | viability, T/C [22]: 19.6% | viability, T/C [23]: 16.1% | viability, T/C [24]: 13.9% | viability, T/C [25]: 9.06% | viability, T/C [30]: 6.64%
